Measurements reported in US20220226337A1 (Gilead Sciences, Inc., priority 2018, published 2022).

Target: T1, α4β7 integrin interaction with MadCAM-1 (RPMI8866 cells) (Homo sapiens, UniProt P13612+P26010)
T1 construct: α4β7 integrin expressing cells; endogenous in cells; host or cells: RPMI8866 cells
T1 sequence (P13612 34-1032): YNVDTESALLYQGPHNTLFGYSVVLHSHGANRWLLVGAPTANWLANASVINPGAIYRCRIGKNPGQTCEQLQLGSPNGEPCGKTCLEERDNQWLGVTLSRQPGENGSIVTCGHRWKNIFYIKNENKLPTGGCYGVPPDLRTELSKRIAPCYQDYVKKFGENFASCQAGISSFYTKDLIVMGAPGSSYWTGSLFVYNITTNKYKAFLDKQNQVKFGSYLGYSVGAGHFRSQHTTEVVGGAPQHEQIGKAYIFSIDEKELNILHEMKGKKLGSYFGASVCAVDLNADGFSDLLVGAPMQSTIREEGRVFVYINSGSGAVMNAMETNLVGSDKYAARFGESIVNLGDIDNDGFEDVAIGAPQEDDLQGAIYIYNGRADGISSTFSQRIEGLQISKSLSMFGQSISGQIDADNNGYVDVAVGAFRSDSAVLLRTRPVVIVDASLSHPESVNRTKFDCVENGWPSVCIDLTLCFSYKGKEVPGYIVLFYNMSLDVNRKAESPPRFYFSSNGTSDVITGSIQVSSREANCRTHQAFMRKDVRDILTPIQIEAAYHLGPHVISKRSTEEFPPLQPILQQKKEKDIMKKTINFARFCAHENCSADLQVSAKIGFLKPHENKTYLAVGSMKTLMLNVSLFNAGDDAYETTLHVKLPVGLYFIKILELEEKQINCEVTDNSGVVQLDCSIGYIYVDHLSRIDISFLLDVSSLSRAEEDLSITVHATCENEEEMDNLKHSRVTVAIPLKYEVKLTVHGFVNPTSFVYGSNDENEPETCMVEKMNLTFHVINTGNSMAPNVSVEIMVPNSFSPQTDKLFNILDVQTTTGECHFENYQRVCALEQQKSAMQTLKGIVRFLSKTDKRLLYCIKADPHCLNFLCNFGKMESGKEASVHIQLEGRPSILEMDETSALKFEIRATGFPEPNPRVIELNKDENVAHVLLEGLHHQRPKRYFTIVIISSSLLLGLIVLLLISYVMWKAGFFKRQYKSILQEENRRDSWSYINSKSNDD
T1 sequence (P26010 20-798): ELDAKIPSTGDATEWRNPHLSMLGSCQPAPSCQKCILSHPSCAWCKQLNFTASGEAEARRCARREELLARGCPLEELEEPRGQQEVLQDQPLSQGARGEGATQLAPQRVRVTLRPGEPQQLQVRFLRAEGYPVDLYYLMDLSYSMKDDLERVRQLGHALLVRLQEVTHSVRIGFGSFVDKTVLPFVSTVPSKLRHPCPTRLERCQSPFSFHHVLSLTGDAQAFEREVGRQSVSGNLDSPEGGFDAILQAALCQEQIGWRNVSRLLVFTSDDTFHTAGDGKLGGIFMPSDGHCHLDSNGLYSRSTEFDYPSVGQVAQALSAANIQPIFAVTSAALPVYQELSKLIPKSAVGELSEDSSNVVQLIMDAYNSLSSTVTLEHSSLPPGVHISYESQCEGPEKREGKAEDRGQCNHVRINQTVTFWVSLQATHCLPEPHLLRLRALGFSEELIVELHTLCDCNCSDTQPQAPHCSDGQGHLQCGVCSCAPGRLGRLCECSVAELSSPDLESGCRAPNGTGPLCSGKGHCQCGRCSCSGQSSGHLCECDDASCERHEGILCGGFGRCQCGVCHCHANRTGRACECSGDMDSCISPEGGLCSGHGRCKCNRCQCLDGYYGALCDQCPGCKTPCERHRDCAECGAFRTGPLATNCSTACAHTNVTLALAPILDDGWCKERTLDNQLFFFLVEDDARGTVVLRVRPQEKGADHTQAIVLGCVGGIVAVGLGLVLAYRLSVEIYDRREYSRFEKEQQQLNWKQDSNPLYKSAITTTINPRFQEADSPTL
Assay: α4β7 Integrin Cell Capture Assay
Format: cell-based
Details: capture of α4β7 integrin expressing RPMI8866 cells on recombinant MadCAM-1 extracellular domain-coated plate; 0.5 mM MnCl2
Description: The potency of inhibitors in preventing α4β7 integrin interaction with MadCAM-1 was measured by monitoring the capture of α4β7 integrin expressing cells on a recombinant MadCAM-1 extracellular domain-coated plate. 384-well plates (Corning 3702) were coated with MadCAM-1 extracellular domain by dispensing 20 μL of MAdCAM-1 at 1.0 μg/mL per well and incubating overnight at 4° C. The plates were then washed with PBS and blocked with 3% BSA for 2 hours before being washed again. RPMI8866 cells were spun down and re-suspended in assay medium (DMEM+0.5% FBS+0.5 mM MnCl2) at a density of 0.5×10^6 cells/mL. The cells were then dispensed (60 μL/well) to a 384-well plate (Greiner 781280) that was previously spotted with 60 nL of test compound per well. The plates were incubated at 37° C. for 1 hour. 50 μL of cells were transferred to the blocked, MadCAM-1-coated plates and incubated for 30 minutes at 37° C. 10 μL of 12% glutaraldehyde containing Hoechst 33342 (0.06 mg/mL) was added to the cells (2% glutaraldehyde and 0.01 mg/mL final concentrations). The plates were incubated for 90 minutes at room temperature. The plates were then washed 3 times with 70 μL of PBS per well and imaged on a Cellomics ArrayScan instrument. The cells that were bound to the plate were counted and plotted against the compound concentration to determine the EC50 of the test compounds.

Compound | EC50
CC[C@@H](Nc1cc(F)c(C(=O)N[C@@H](Cc2ccc(-c3cc4ccccc4n(C)c3=O)c3c2COC3)C(=O)O)c(F)c1)C(F)(F)F [Example 21, (S)-2-(2,6-difluoro-4-(((R)-1,1,1-trifluorobutan-2-yl)amino)benzamido)-3-(7-(1-methyl-2-oxo-1,2-dihydroquinolin-3-yl)-1,3-dihydroisobenzofuran-4-yl)propanoic acid] | 6 nM
CC[C@@H](Nc1cc(F)c(C(=O)N[C@@H](Cc2ccc(-c3c(C)cc(C)n(C)c3=O)c3c2COC3)C(=O)O)c(F)c1)C(F)(F)F [Example 22, (S)-2-(2,6-difluoro-4-(((R)-1,1,1-trifluorobutan-2-yl)amino)benzamido)-3-(7-(1,4,6-trimethyl-2-oxo-1,2-dihydropyridin-3-yl)-1,3-dihydroisobenzofuran-4-yl)propanoic acid] | 1.35 nM
CC[C@@H](Nc1cc(F)c(C(=O)N[C@@H](Cc2ccc(-c3c(OC)cc(C)n(C)c3=O)c3c2COC3)C(=O)O)c(F)c1)C(F)(F)F [Example 23, (S)-2-(2,6-difluoro-4-(((R)-1,1,1-trifluorobutan-2-yl)amino)benzamido)-3-(7-(4-methoxy-1,6-dimethyl-2-oxo-1,2-dihydropyridin-3-yl)-1,3-dihydroisobenzofuran-4-yl) propanoic acid] | 0.692 nM
CC[C@@H](Nc1cc(F)c(C(=O)N[C@@H](Cc2ccc(-c3ncc(C)c(C)n3)c3c2COC3)C(=O)O)c(F)c1)C(F)(F)F [Example 24, (S)-2-(2,6-difluoro-4-(((R)-1,1,1-trifluorobutan-2-yl)amino)benzamido)-3-(7-(4,5-dimethylpyrimidin-2-yl)-1,3-dihydroisobenzofuran-4-yl)propanoic acid] | 100 nM
Cn1c(=O)c(-c2ccc(C[C@H](NC(=O)c3c(F)cc(N4CCOC[C@@H]4C(F)(F)F)cc3F)C(=O)O)c3c2COC3)cc2ccccc21 [Example 26, (S)-2-(2,6-difluoro-4-((R)-3-(trifluoromethyl)morpholino)benzamido)-3-(7-(1-methyl-2-oxo-1,2-dihydroquinolin-3-yl)-1,3-dihydroisobenzofuran-4-yl)propanoic acid] | 1.04 nM
Cc1cc(C)n(C)c(=O)c1-c1ccc(C[C@H](NC(=O)c2c(F)cc(N3CCOC[C@@H]3C(F)(F)F)cc2F)C(=O)O)c2c1COC2 [Example 27, (S)-2-(2,6-difluoro-4-((R)-3-(trifluoromethyl)morpholino)benzamido)-3-(7-(1,4,6-trimethyl-2-oxo-1,2-dihydropyridin-3-yl)-1,3-dihydroisobenzofuran-4-yl)propanoic acid] | 0.822 nM
Cc1cnc(-c2ccc(C[C@H](NC(=O)c3c(F)cc(N4CCOC[C@@H]4C(F)(F)F)cc3F)C(=O)O)c3c2COC3)nc1C [Example 28, (S)-2-(2,6-difluoro-4-((R)-3-(trifluoromethyl)morpholino)benzamido)-3-(7-(4,5-dimethylpyrimidin-2-yl)-1,3-dihydroisobenzofuran-4-yl)propanoic acid] | 94.9 nM
Cc1c(C(F)(F)F)cn(C)c(=O)c1-c1ccc(C[C@H](NC(=O)c2c(F)cc(N3CCOC[C@@H]3C(F)(F)F)cc2F)C(=O)O)c2c1COC2 [Example 29, (S)-2-(2,6-difluoro-4-((R)-3-(trifluoromethyl)morpholino)benzamido)-3-(7-(1,4-dimethyl-2-oxo-5-(trifluoromethyl)-1,2-dihydropyridin-3-yl)-1,3-dihydroisobenzofuran-4-yl)propanoic acid] | 0.817 nM
Cc1cc(C)n(C)c(=O)c1-c1ccc(C[C@H](NC(=O)c2c(F)cc(N[C@H](C)C(F)(F)F)cc2F)C(=O)O)c2c1COC2 [Example 30, (S)-2-(2,6-difluoro-4-(((R)-1,1,1-trifluoropropan-2-yl)amino)benzamido)-3-(7-(1,4,6-trimethyl-2-oxo-1,2-dihydropyridin-3-yl)-1,3-dihydroisobenzofuran-4-yl)propanoic acid] | 1.74 nM
